Earlier results on one molecule are cited in US9399652B2, “Synthetic route to pactamycin and pactamycin analogs” (The University of North Carolina at Chapel Hill, priority 2013, dated 2016).

For this series the following is noted: literature value (ref. 11); cell line not given; read-out: cytotoxicity (IC50).

In the case of `CC(=O)c1cccc(N[C@H]2[C@H](N)[C@@](NC(=O)N(C)C)([C@H](C)O)[C@@](C)(O)[C@@]2(O)COC(=O)c2c(C)cccc2O)c1` [Pactamycin], the half-maximal inhibitory concentration (IC50) was 95 nM.

Usually IC50 stands for the concentration that inhibits the measured activity by half.
